# Measured values: ChEMBL document CHEMBL3885881, “DrugMatrix”
# Species on record: Rattus norvegicus
# Test: DrugMatrix - Regimen: Daily Repeat
# Type: toxicity, organism-based, Sprague-Dawley
# Set-up: regimen Daily Repeat, gender Male, age 6-8 weeks
# Conditions: in vivo, po, route oral GAVAGE, vehicle .5 % CMC; for ABSOLUTE BASOPHIL / ABSOLUTE EOSINOPHIL / ABSOLUTE LYMPHOCYTE / ABSOLUTE MONOCYTE / ABSOLUTE SEGMENTED NEUTROPHIL / BASOPHIL / EOSINOPHIL / ERYTHROCYTE COUNT / HEMATOCRIT / HEMOGLOBIN / LEUKOCYTE COUNT / LYMPHOCYTE / MEAN CORPUSCULAR HEMOGLOBIN / MEAN CORPUSCULAR HEMOGLOBIN CONCENTRATION / MEAN CORPUSCULAR VOLUME / MONOCYTE / NEUTROPHIL / NUCLEATED RED BLOOD CELLS / PLATELET COUNT: tissue Blood; for ALANINE AMINOTRANSFERASE / ALBUMIN / ALKALINE PHOSPHATASE / ASPARTATE AMINOTRANSFERASE / BLOOD UREA NITROGEN / CARBON DIOXIDE / CHLORIDE / CHOLESTEROL / CREATINE PHOSPHOKINASE / CREATININE / GLUCOSE / LACTATE DEHYDROGENASE / LIPASE / PHOSPHORUS / POTASSIUM / SODIUM / TOTAL BILIRUBIN / TOTAL PROTEIN / URIC ACID: tissue Plasma
# [1] = 0 mg/kg, 72 h, dose level Control, time 3 day
# [2] = 0 mg/kg, 120 h, dose level Control, time 5 day
# [3] = 20 mg/kg, 72 h, dose level Low, time 3 day
# [4] = 20 mg/kg, 120 h, dose level Low, time 5 day
compound,measurement,setting,value
Clc1ccc2c(c1)C(N1CCNCC1)=Nc1ccccc1O2 [AMOXAPINE],ABSOLUTE BASOPHIL,[1],0 CELLS/uL
same,ABSOLUTE EOSINOPHIL,[1],32.5 CELLS/uL
same,ABSOLUTE LYMPHOCYTE,[1],13494.17 CELLS/uL
same,ABSOLUTE MONOCYTE,[1],474 CELLS/uL
same,ABSOLUTE SEGMENTED NEUTROPHIL,[1],1932.67 CELLS/uL
same,BASOPHIL,[1],0%
same,EOSINOPHIL,[1],0.17%
same,ERYTHROCYTE COUNT,[1],5.45 x10E6/uL
same,HEMATOCRIT,[1],34.32%
same,HEMOGLOBIN,[1],13.82 G/DL
same,LEUKOCYTE COUNT,[1],15.93 x10E3/uL
same,LYMPHOCYTE,[1],84.83%
same,MEAN CORPUSCULAR HEMOGLOBIN,[1],25.38 pg
same,MEAN CORPUSCULAR HEMOGLOBIN CONCENTRATION,[1],40.27 G/DL
same,MEAN CORPUSCULAR VOLUME,[1],63.05 fL
same,MONOCYTE,[1],3%
same,NEUTROPHIL,[1],12%
same,NUCLEATED RED BLOOD CELLS,[1],0.67 /100WBC
same,PLATELET COUNT,[1],1188.5 x10E3/uL
same,ALANINE AMINOTRANSFERASE,[1],54.83 u/L
same,ALBUMIN,[1],4.22 G/DL
same,ALKALINE PHOSPHATASE,[1],427.67 u/L
same,ASPARTATE AMINOTRANSFERASE,[1],86.5 u/L
same,BLOOD UREA NITROGEN,[1],15.33 mg/dL
same,CARBON DIOXIDE,[1],24.83 mmol/L
same,CHLORIDE,[1],102.33 MEQ/L
same,CHOLESTEROL,[1],71.67 mg/dL
same,CREATINE PHOSPHOKINASE,[1],442.5 u/L
same,CREATININE,[1],0.19 mg/dL
same,GLUCOSE,[1],160.67 mg/dL
same,LACTATE DEHYDROGENASE,[1],236.5 u/L
same,LIPASE,[1],9 u/L
same,PHOSPHORUS,[1],11.97 mg/dL
same,POTASSIUM,[1],6.2 MEQ/L
same,SODIUM,[1],142.85 MEQ/L
same,TOTAL BILIRUBIN,[1],0.2 mg/dL
same,TOTAL PROTEIN,[1],5.8 G/DL
same,URIC ACID,[1],1.3 mg/dL
same,ABSOLUTE BASOPHIL,[2],0 CELLS/uL
same,ABSOLUTE EOSINOPHIL,[2],114.5 CELLS/uL
same,ABSOLUTE LYMPHOCYTE,[2],14614 CELLS/uL
same,ABSOLUTE MONOCYTE,[2],173 CELLS/uL
same,ABSOLUTE SEGMENTED NEUTROPHIL,[2],1048.5 CELLS/uL
same,BASOPHIL,[2],0%
same,EOSINOPHIL,[2],0.67%
same,ERYTHROCYTE COUNT,[2],5.66 x10E6/uL
same,HEMATOCRIT,[2],35.52%
same,HEMOGLOBIN,[2],14.27 G/DL
same,LEUKOCYTE COUNT,[2],15.95 x10E3/uL
same,LYMPHOCYTE,[2],91.33%
same,MEAN CORPUSCULAR HEMOGLOBIN,[2],25.23 pg
same,MEAN CORPUSCULAR HEMOGLOBIN CONCENTRATION,[2],40.2 G/DL
same,MEAN CORPUSCULAR VOLUME,[2],62.7 fL
same,MONOCYTE,[2],1.17%
same,NEUTROPHIL,[2],6.83%
same,NUCLEATED RED BLOOD CELLS,[2],0.33 /100WBC
same,PLATELET COUNT,[2],1229 x10E3/uL
same,ALANINE AMINOTRANSFERASE,[2],58.67 u/L
same,ALBUMIN,[2],4.32 G/DL
same,ALKALINE PHOSPHATASE,[2],382.5 u/L
same,ASPARTATE AMINOTRANSFERASE,[2],81.67 u/L
same,BLOOD UREA NITROGEN,[2],17.67 mg/dL
same,CARBON DIOXIDE,[2],27.17 mmol/L
same,CHLORIDE,[2],102.33 MEQ/L
same,CHOLESTEROL,[2],63.67 mg/dL
same,CREATINE PHOSPHOKINASE,[2],227.67 u/L
same,CREATININE,[2],0.23 mg/dL
same,GLUCOSE,[2],155.33 mg/dL
same,LACTATE DEHYDROGENASE,[2],146.5 u/L
same,LIPASE,[2],10.67 u/L
same,PHOSPHORUS,[2],11.93 mg/dL
same,POTASSIUM,[2],6.85 MEQ/L
same,SODIUM,[2],143.95 MEQ/L
same,TOTAL BILIRUBIN,[2],0.18 mg/dL
same,TOTAL PROTEIN,[2],6.02 G/DL
same,URIC ACID,[2],1.63 mg/dL
same,ABSOLUTE BASOPHIL,[3],0 CELLS/uL
same,ABSOLUTE EOSINOPHIL,[3],0 CELLS/uL
same,ABSOLUTE LYMPHOCYTE,[3],12123 CELLS/uL
same,ABSOLUTE MONOCYTE,[3],372 CELLS/uL
same,ABSOLUTE SEGMENTED NEUTROPHIL,[3],1505 CELLS/uL
same,BASOPHIL,[3],0%
same,EOSINOPHIL,[3],0%
same,ERYTHROCYTE COUNT,[3],5.61 x10E6/uL
same,HEMATOCRIT,[3],34.6%
same,HEMOGLOBIN,[3],13.67 G/DL
same,LEUKOCYTE COUNT,[3],14 x10E3/uL
same,LYMPHOCYTE,[3],86.67%
same,MEAN CORPUSCULAR HEMOGLOBIN,[3],24.47 pg
same,MEAN CORPUSCULAR HEMOGLOBIN CONCENTRATION,[3],39.53 G/DL
same,MEAN CORPUSCULAR VOLUME,[3],61.9 fL
same,MONOCYTE,[3],2.67%
same,NEUTROPHIL,[3],10.67%
same,NUCLEATED RED BLOOD CELLS,[3],0.33 /100WBC
same,PLATELET COUNT,[3],1267.33 x10E3/uL
same,ALANINE AMINOTRANSFERASE,[3],52 u/L
same,ALBUMIN,[3],4.13 G/DL
same,ALKALINE PHOSPHATASE,[3],425.33 u/L
same,ASPARTATE AMINOTRANSFERASE,[3],87 u/L
same,BLOOD UREA NITROGEN,[3],15.67 mg/dL
same,CARBON DIOXIDE,[3],26.67 mmol/L
same,CHLORIDE,[3],101.33 MEQ/L
same,CHOLESTEROL,[3],69 mg/dL
same,CREATINE PHOSPHOKINASE,[3],308 u/L
same,CREATININE,[3],0.17 mg/dL
same,GLUCOSE,[3],148.33 mg/dL
same,LACTATE DEHYDROGENASE,[3],190.67 u/L
same,LIPASE,[3],9 u/L
same,PHOSPHORUS,[3],12.47 mg/dL
same,POTASSIUM,[3],6.99 MEQ/L
same,SODIUM,[3],143.93 MEQ/L
same,TOTAL BILIRUBIN,[3],0.17 mg/dL
same,TOTAL PROTEIN,[3],5.8 G/DL
same,URIC ACID,[3],1.77 mg/dL
same,ABSOLUTE BASOPHIL,[4],0 CELLS/uL
same,ABSOLUTE EOSINOPHIL,[4],0 CELLS/uL
same,ABSOLUTE LYMPHOCYTE,[4],16690.33 CELLS/uL
same,ABSOLUTE MONOCYTE,[4],278.67 CELLS/uL
same,ABSOLUTE SEGMENTED NEUTROPHIL,[4],997.67 CELLS/uL
same,BASOPHIL,[4],0%
same,EOSINOPHIL,[4],0%
same,ERYTHROCYTE COUNT,[4],5.66 x10E6/uL
same,HEMATOCRIT,[4],34.53%
same,HEMOGLOBIN,[4],14.03 G/DL
same,LEUKOCYTE COUNT,[4],17.97 x10E3/uL
same,LYMPHOCYTE,[4],93%
same,MEAN CORPUSCULAR HEMOGLOBIN,[4],24.87 pg
same,MEAN CORPUSCULAR HEMOGLOBIN CONCENTRATION,[4],40.63 G/DL
same,MEAN CORPUSCULAR VOLUME,[4],61.17 fL
same,MONOCYTE,[4],1.33%
same,NEUTROPHIL,[4],5.67%
same,NUCLEATED RED BLOOD CELLS,[4],0.67 /100WBC
same,PLATELET COUNT,[4],1272 x10E3/uL
same,ALANINE AMINOTRANSFERASE,[4],53.33 u/L
same,ALBUMIN,[4],4.1 G/DL
same,ALKALINE PHOSPHATASE,[4],315 u/L
same,ASPARTATE AMINOTRANSFERASE,[4],72.33 u/L
same,BLOOD UREA NITROGEN,[4],18.33 mg/dL
same,CARBON DIOXIDE,[4],27.33 mmol/L
same,CHLORIDE,[4],100.33 MEQ/L
same,CHOLESTEROL,[4],84 mg/dL
same,CREATINE PHOSPHOKINASE,[4],186.33 u/L
same,CREATININE,[4],0.19 mg/dL
same,GLUCOSE,[4],146 mg/dL
same,LACTATE DEHYDROGENASE,[4],126.33 u/L
same,LIPASE,[4],10 u/L
same,PHOSPHORUS,[4],12.8 mg/dL
same,POTASSIUM,[4],6.96 MEQ/L
same,SODIUM,[4],145.2 MEQ/L
same,TOTAL BILIRUBIN,[4],0.2 mg/dL
same,TOTAL PROTEIN,[4],5.8 G/DL
same,URIC ACID,[4],1.43 mg/dL
